Where a name gives a salt, the structure may show the parent alone.
System: mice
Test: SmartCube in vivo neuropharmacological behavioral assay
Details: for minimal effective dose: Mus musculus, ip, 0.25 h, dose having 50% or more total activity in SmartCube, i.p., read-out: MED (minimal effective dose); for AD: antidepressant (percent probability) / AG: analgesic (percent probability) / AP: antipsychotic (percent probability) / AX: anxiolytic (percent probability) / CE: cognitive enhancer (percent probability) / HA: hallucinogenic (percent probability) / MS: mood stabilizer (percent probability) / PS (percent probability) / SD: sedative hypnotic (percent probability) / SE: side effects (percent probability) / UN: uncharacterized CNS activity (percent probability) / XG: anxiogenic (percent probability): SmartCube, i.p. 15 min before test, result at the MED
Method in brief: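 Mice dosed i.p. in NMP (Pharmasolve) 15 min before automated video behavioral testing at several doses (e.g., 0.3-30 mpk). Signatures compared to reference drug classes giving per-class probabilities (0-100); MED is the lowest dose with ≥50% total activity.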

Structure (SMILES): CC(C)N1C2CCCC1c1cc(F)c(F)cc12 [Compound 41, 4,5-Difluoro-12-(propan-2-yl)-12-azatricyclo[6.3.1.0^2,7]dodeca-2,4,6-triene]
- minimal effective dose: 10 to 30 mg/kg
- AD: antidepressant (percent probability): ++ (5% ≤ X < 25%)
- AG: analgesic (percent probability): ++ (5% ≤ X < 25%)
- AP: antipsychotic (percent probability): ++ (5% ≤ X < 25%)
- AX: anxiolytic (percent probability): ++ (5% ≤ X < 25%)
- CE: cognitive enhancer (percent probability): ++ (5% ≤ X < 25%)
- HA: hallucinogenic (percent probability): + (LOQ ≤ X < 5%)
- MS: mood stabilizer (percent probability): + (LOQ ≤ X < 5%)
- PS (percent probability): + (LOQ ≤ X < 5%)
- SD: sedative hypnotic (percent probability): + (LOQ ≤ X < 5%)
- SE: side effects (percent probability): + (LOQ ≤ X < 5%)
- UN: uncharacterized CNS activity (percent probability): +++ (25% ≤ X < 50%)
- XG: anxiogenic (percent probability): + (LOQ ≤ X < 5%)

Structure (SMILES): CC(CF)N1C2CCCC1c1ccccc12 (stereo not shown) [Compound 19, 12-(1-Fluoropropan-2-yl)-12-azatricyclo[6.3.1.0^2,7]dodeca-2,4,6-triene hydrochloride]
- minimal effective dose: 10 to 30 mg/kg
- AD: antidepressant (percent probability): ++ (5% ≤ X < 25%)
- AG: analgesic (percent probability): + (LOQ ≤ X < 5%)
- AP: antipsychotic (percent probability): + (LOQ ≤ X < 5%)
- AX: anxiolytic (percent probability): ++++ (50% ≤ X < 100%)
- CE: cognitive enhancer (percent probability): + (LOQ ≤ X < 5%)
- HA: hallucinogenic (percent probability): + (LOQ ≤ X < 5%)
- MS: mood stabilizer (percent probability): + (LOQ ≤ X < 5%)
- PS (percent probability): + (LOQ ≤ X < 5%)
- SD: sedative hypnotic (percent probability): + (LOQ ≤ X < 5%)
- SE: side effects (percent probability): + (LOQ ≤ X < 5%)
- UN: uncharacterized CNS activity (percent probability): + (LOQ ≤ X < 5%)
- XG: anxiogenic (percent probability): + (LOQ ≤ X < 5%)

Structure (SMILES): CC(C)N1C2CCC(F)C1c1ccccc12 (stereo not shown) [Compound 35, 9-Fluoro-12-(propan-2-yl)-12-azatricyclo[6.3.1.0^2,7]dodeca-2,4,6-triene hydrochloride]
- minimal effective dose: > 30 mg/kg
- AD: antidepressant (percent probability): + (LOQ ≤ X < 5%)
- AG: analgesic (percent probability): ++ (5% ≤ X < 25%)
- AP: antipsychotic (percent probability): + (LOQ ≤ X < 5%)
- AX: anxiolytic (percent probability): ++ (5% ≤ X < 25%)
- CE: cognitive enhancer (percent probability): + (LOQ ≤ X < 5%)
- HA: hallucinogenic (percent probability): + (LOQ ≤ X < 5%)
- MS: mood stabilizer (percent probability): + (LOQ ≤ X < 5%)
- PS (percent probability): + (LOQ ≤ X < 5%)
- SD: sedative hypnotic (percent probability): + (LOQ ≤ X < 5%)
- SE: side effects (percent probability): + (LOQ ≤ X < 5%)
- UN: uncharacterized CNS activity (percent probability): + (LOQ ≤ X < 5%)
- XG: anxiogenic (percent probability): + (LOQ ≤ X < 5%)

Structure (SMILES): c1ccc2c(c1)C1CCCC2N1 [Compound 1, 12-Azatricyclo[6.3.1.0^2,7]dodeca-2,4,6-triene]
- minimal effective dose: 10 to 30 mg/kg
- AD: antidepressant (percent probability): ++ (5% ≤ X < 25%)
- AG: analgesic (percent probability): ++ (5% ≤ X < 25%)
- AP: antipsychotic (percent probability): + (LOQ ≤ X < 5%)
- AX: anxiolytic (percent probability): ++ (5% ≤ X < 25%)
- CE: cognitive enhancer (percent probability): +++ (25% ≤ X < 50%)
- HA: hallucinogenic (percent probability): + (LOQ ≤ X < 5%)
- MS: mood stabilizer (percent probability): + (LOQ ≤ X < 5%)
- PS (percent probability): + (LOQ ≤ X < 5%)
- SD: sedative hypnotic (percent probability): + (LOQ ≤ X < 5%)
- SE: side effects (percent probability): ++ (5% ≤ X < 25%)
- UN: uncharacterized CNS activity (percent probability): + (LOQ ≤ X < 5%)
- XG: anxiogenic (percent probability): + (LOQ ≤ X < 5%)

— patent US20230116114A1, “COMPOUNDS AND COMPOSITIONS FOR TREATING CNS DISORDERS” (Blue Oak Pharmaceuticals, Inc., priority 2020, published 2023)
